Experimental data as given in the supplement of paper PMC9265050, “Inhibition of RNA Binding in SND1 Increases the Levels of miR-1-3p and Sensitizes Cancer Cells to Navitoclax” (Cancers, 2022).

Tested on: SW480
Experiment: drug sensitivity score (DSS, integrated dose-response area); higher = more sensitive (stronger viability reduction); extreme values may be limits of the assay
How it was run: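 SW480 cells stably carrying doxycycline-inducible control or SND1-targeting shRNA were treated with 0.1 µg/mL doxycycline for 7 days. Cells were then seeded at 1000 per well into 384-well plates containing 525 commercially available small-molecule inhibitors at five concentrations, and viability was measured with CellTiter-Glo after 72 h. The drug sensitivity score integrates the area under a fitted non-linear dose–response model.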

[1] = shRNA: SND1 shRNA1 (SND1 silenced)
[2] = shRNA: SND1 shRNA2 (SND1 silenced)
[3] = shRNA: control shRNA (non-targeting)

| SMILES | drug sensitivity score [1] | drug sensitivity score [2] | drug sensitivity score [3] |
| --- | --- | --- | --- |
| Cc1cc(C)c(/C=C2\C(=O)Nc3ccccc32)[nH]1 [Semaxanib] | 0 DSS | 0 DSS | 0.6 DSS |
| c1ccc2c(CCNc3ccc(Nc4ccncc4)cc3)c[nH]c2c1 [Serdemetan] | 2.4 DSS | 1 DSS | 2.2 DSS |
| O=C(O)c1ccc2c(c1)nc(Nc1cccc(Cl)c1)c1ccncc12 [Silmitasertib] | 2.1 DSS | 2.1 DSS | 0.8 DSS |
| CCC(C)(C)C(=O)O[C@H]1C[C@@H](C)C=C2C=C[C@H](C)[C@H](CC[C@@H]3C[C@@H](O)CC(=O)O3)[C@H]21 [Simvastatin] | 1.2 DSS | – | 4.5 DSS |
| CO[C@H]1C[C@@H]2CC[C@@H](C)[C@@](O)(O2)C(=O)C(=O)N2CCCC[C@H]2C(=O)O[C@H]([C@H](C)C[C@@H]2CC[C@@H](O)[C@H](OC)C2)CC(=O)[C@H](C)/C=C(\C)[C@@H](O)[C@@H](OC)C(=O)[C@H](C)C[C@H](C)/C=C/C=C/C=C/1C [Sirolimus] | 7.8 DSS | – | 6.9 DSS |
| Cc1c(C(=O)Nc2ccc(N3C[C@@H](C)O[C@@H](C)C3)nc2)cccc1-c1ccc(OC(F)(F)F)cc1 [Sonidegib] | 2.9 DSS | 5.7 DSS | 2.8 DSS |
| C=CCN(/C=C1/C(=O)O[C@H](COC)[C@@]2(C)C1=C(O)C(=O)C1=C2[C@H](OC(C)=O)C[C@]2(C)C(=O)CC[C@@H]12)CC=C [Sonolisib] | 0 DSS | 0.3 DSS | 2.1 DSS |
| CNC(=O)c1cc(Oc2ccc(NC(=O)Nc3ccc(Cl)c(C(F)(F)F)c3)cc2)ccn1 [Sorafenib] | 0 DSS | 0 DSS | 0 DSS |
| CN1CCN(c2nc(C3=C(c4c[nH]c5ccccc45)C(=O)NC3=O)c3ccccc3n2)CC1 [Sotrastaurin] | 4.5 DSS | 0.5 DSS | 4.9 DSS |
| C=CC(=O)Nc1cccc(Nc2nc(Nc3ccc(OCCOC)cc3)ncc2F)c1 [Spebrutinib] | 2.5 DSS | 0 DSS | 4.4 DSS |
| O=[N+]([O-])c1ccc2c(c1)S(=O)(=O)C=C2 [Stattic] | 16 DSS | 15.8 DSS | 9.5 DSS |
| CC(C)n1cnc2c(NCCc3ccc(O)cc3)nc(-c3csc4ccccc34)nc21 [StemRegenin 1] | 1.3 DSS | 1 DSS | 0.8 DSS |
| CN(N=O)C(=O)N[C@@H](C=O)[C@@H](O)[C@H](O)[C@H](O)CO [Streptozocin] | 0.8 DSS | 5.9 DSS | 4.1 DSS |
| CCN(CC)CCNC(=O)c1c(C)[nH]c(/C=C2\C(=O)Nc3ccc(F)cc32)c1C [Sunitinib] | 0.3 DSS | 0.1 DSS | 0.7 DSS |
| CC(C)(O)CC(=O)NCCn1ccc2ncnc(Nc3ccc(Oc4cccc(C(F)(F)F)c4)c(Cl)c3)c21 [TAK-285] | 0 DSS | 0 DSS | 0 DSS |
| N#Cc1c(Oc2ccc(F)c(NC(=O)Cc3cccc(C(F)(F)F)c3)c2)ccc2nc(NC(=O)C3CC3)sc12 [TAK-632] | 5.9 DSS | 0.5 DSS | 3.1 DSS |
| CCc1nc(-c2cccc(C)c2)c(-c2ccnc(NC(=O)c3ccccc3)c2)s1 [TAK-715] | 4.7 DSS | – | 5.1 DSS |
| Cn1c(=O)c(F)c(Nc2ccc(I)cc2F)c2c(=O)n(C[C@@H](O)CO)cnc21 [TAK-733] | 21.7 DSS | 12.2 DSS | 12 DSS |
| CCS(=O)(=O)c1cccc(-c2cc(C(=O)NC3CCN(C)CC3)c(C)c3[nH]c4ncc(C)cc4c23)c1 [TAK-901] | 0.6 DSS | 0 DSS | 2.1 DSS |
| COc1cc(C(=O)NC2CCN(C)CC2)c(F)cc1Nc1ncc2c(n1)N(C1CCCC1)CC(F)(F)C(=O)N2C [TAK-960] | 0.1 DSS | 5.4 DSS | 3.6 DSS |
| Cc1cccc(-c2[nH]c(CNc3ccccc3F)nc2-c2ccc3ncnn3c2)n1 [TEW-7197] | 0 DSS | 0.6 DSS | 0.6 DSS |
| Nc1nc(N)c2nc(-c3cccc(O)c3)c(-c3cccc(O)c3)nc2n1 [TG100-115] | 0 DSS | 2.6 DSS | 4.9 DSS |
| Cc1cc(C(C)Nc2ccccc2)c2nc(N3CCOCC3)cc(=O)n2c1 (stereo not given) [TGX-221] | 1.6 DSS | 2.5 DSS | 0.8 DSS |
| Nc1nc(NC2CC2)cc(-c2cccc(Cl)c2Cl)n1 [TH588] | 6.2 DSS | – | 6.3 DSS |

| SMILES | drug sensitivity score [1] | drug sensitivity score [2] | drug sensitivity score [3] |
| --- | --- | --- | --- |
| NC(=O)Nc1sc(-c2ccc(F)cc2)cc1C(N)=O [TPCA-1] | 3.8 DSS | – | 2.3 DSS |
| Clc1ccccc1C(c1ccccc1)(c1ccccc1)n1cccn1 [TRAM-34] | 0 DSS | 0 DSS | 1.3 DSS |
| CC(=O)Nc1ccc(C(=O)Nc2ccccc2N)cc1 [Tacedinaline] | 0 DSS | 4.5 DSS | 3.8 DSS |
| C=CC[C@@H]1/C=C(\C)C[C@H](C)C[C@H](OC)[C@H]2O[C@@](O)(C(=O)C(=O)N3CCCC[C@H]3C(=O)O[C@H](/C(C)=C/[C@@H]3CC[C@@H](O)[C@H](OC)C3)[C@H](C)[C@@H](O)CC1=O)[C@H](C)C[C@@H]2OC [Tacrolimus] | 0 DSS | – | 0 DSS |
| Cn1ncnc1[C@H]1c2n[nH]c(=O)c3cc(F)cc(c23)N[C@@H]1c1ccc(F)cc1 [Talazoparib] | 5.8 DSS | 0 DSS | 2.5 DSS |
| C[C@@H]1CN(Cc2ccc(F)cc2)[C@@H](C)CN1C(=O)c1cc2c(C(=O)C(=O)N(C)C)cn(C)c2cc1Cl [Talmapimod] | 0 DSS | – | 0 DSS |
| COc1cc(Nc2ncc(F)c(Nc3ccc4c(n3)NC(=O)C(C)(C)O4)n2)cc(OC)c1OC [Tamatinib] | 0.4 DSS | 0.4 DSS | 0 DSS |
| CC/C(=C(\c1ccccc1)c1ccc(OCCN(C)C)cc1)c1ccccc1 [Tamoxifen] | 5 DSS | 4.4 DSS | 5.9 DSS |
| COc1cc2c(N3CCN(C(=O)Nc4ccc(OC(C)C)cc4)CC3)ncnc2cc1OCCCN1CCCCC1 [Tandutinib] | 0.5 DSS | 4.3 DSS | 3 DSS |
| C=CCNC1=C2C[C@@H](C)C[C@H](OC)[C@H](O)[C@@H](C)/C=C(\C)[C@H](OC(N)=O)[C@@H](OC)/C=C\C=C(/C)C(=O)NC(=CC1=O)C2=O [Tanespimycin] | 10.5 DSS | 11.7 DSS | 16.1 DSS |
| O[C@H]1CC[C@H](Nc2ncc3nc(Nc4c(F)cc(F)cc4F)n([C@H]4CCOC4)c3n2)CC1 [Tanzisertib] | 2.9 DSS | – | 3.4 DSS |
| C[C@@H](C(=O)O)c1ccc(-c2ccccc2)c(F)c1 [Tarenflurbil] | 0 DSS | 0 DSS | 0 DSS |
| Cc1nc(-c2cn3c(n2)-c2ccc(-c4cnn(C(C)(C)C(N)=O)c4)cc2OCC3)n(C(C)C)n1 [Taselisib] | 0 DSS | 0.7 DSS | 0 DSS |
| COc1cccc2c1c(O)c(C(=O)N(C)c1ccc(C(F)(F)F)cc1)c(=O)n2C [Tasquinimod] | 3.7 DSS | 0 DSS | 2.3 DSS |
| CCN(c1cc(-c2ccc(CN3CCOCC3)cc2)cc(C(=O)NCc2c(C)cc(C)[nH]c2=O)c1C)C1CCOCC1 [Tazemetostat] | 3.8 DSS | 0.8 DSS | 2.2 DSS |
| CNC(=O)c1cc(COc2nnc(Nc3ccc(Cl)cc3)c3ccoc23)ccn1 [Telatinib] | 0 DSS | 0 DSS | 0 DSS |
| Cn1nnc2c(C(N)=O)ncn2c1=O [Temozolomide] | 0 DSS | 5.2 DSS | 2.4 DSS |
| CO[C@H]1C[C@@H]2CC[C@@H](C)[C@@](O)(O2)C(=O)C(=O)N2CCCC[C@H]2C(=O)O[C@H]([C@H](C)C[C@@H]2CC[C@@H](OC(=O)C(C)(CO)CO)[C@H](OC)C2)CC(=O)[C@H](C)/C=C(\C)[C@@H](O)[C@@H](OC)C(=O)[C@H](C)C[C@H](C)/C=C/C=C/C=C/1C [Temsirolimus] | 11.9 DSS | – | 9.5 DSS |
| COc1cc([C@@H]2c3cc4c(cc3[C@@H](O[C@@H]3O[C@@H]5CO[C@@H](c6cccs6)O[C@H]5[C@H](O)[C@H]3O)[C@H]3COC(=O)[C@H]23)OCO4)cc(OC)c1O [Teniposide] | 9.1 DSS | 6 DSS | 7.8 DSS |
| O=C1CCC(N2C(=O)c3ccccc3C2=O)C(=O)N1 (stereo not given) [Thalidomide] | 0.5 DSS | 0.1 DSS | 2 DSS |
| S=P(N1CC1)(N1CC1)N1CC1 [Thio-TEPA] | 0 DSS | 0 DSS | 0 DSS |
| Nc1nc2[nH]cnc2c(=S)[nH]1 [Thioguanine] | 9.3 DSS | 5.9 DSS | 8.4 DSS |
| O=c1sn(-c2cccc3ccccc23)c(=O)n1Cc1ccccc1 [Tideglusib] | 0.1 DSS | 1.2 DSS | 0.1 DSS |
| Cn1cncc1[C@@](N)(c1ccc(Cl)cc1)c1ccc2c(c1)c(-c1cccc(Cl)c1)cc(=O)n2C [Tipifarnib] | 8.8 DSS | 8.7 DSS | 10.2 DSS |
